Measured values as given in patent US20210045385A1, “PYRIDAZINONE-SUBSTITUTED KETOXIMES AS HERBICIDES” (FMC Corporation, priority 2018, published 2021).

Key:
Assay type in all cases: in vivo
[1] = test system: duck salad (Heteranthera limosa); assay: Test D flooded paddy test, visual plant response rating; conditions: 250 g ai/ha, scale 0 to 100 (0 no effect, 100 complete control), 13 to 15 d
Summary of the method: (§1)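 Greenhouse paddy assay scored on a 0–100 visual scale after 13 to 15 d, where 100 means complete control and a dash marks no result; dosing was into 3 cm floodwater over 2-leaf plants.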

[2] = test system: barnyardgrass (Echinochloa crus-galli); assay: as above; conditions: 250 g ai/ha, scale 0 to 100 (0 no effect, 100 complete control), 13 to 15 d
Summary of the method: as §1

[3] = test system: sedge umbrella (small-flower umbrella sedge, Cyperus difformis); assay: as above; conditions: 250 g ai/ha, scale 0 to 100 (0 no effect, 100 complete control), 13 to 15 d
Summary of the method: as §1

[4] = test system: rice (Oryza sativa); assay: as above; conditions: 250 g ai/ha, scale 0 to 100 (0 no effect, 100 complete control), 13 to 15 d
Summary of the method: as §1

[5] = test system: galium (catchweed bedstraw, Galium aparine); assay: Test C postemergence, visual plant response rating
Summary of the method: (§2)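 Seeds sown in a loam–sand blend got a directed preemergence soil spray; postemergence plants (2–10 cm, one- to two-leaf stage) were sprayed with compound in a non-phytotoxic solvent plus surfactant. Injury was scored visually against untreated controls after about 10 d in a greenhouse on a 0–100 scale (100 = complete control).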

[6] = test system: wheat (Triticum aestivum); assay: Test C postemergence, visual plant response rating
Summary of the method: as §2

[7] = test system: corn (Zea mays); assay: Test C postemergence, visual plant response rating
Summary of the method: as §2

[8] = test system: blackgrass (Alopecurus myosuroides); assay: Test C postemergence, visual plant response rating
Summary of the method: as §2

[9] = test system: pigweed (Amaranthus retroflexus); assay: Test C postemergence, visual plant response rating
Summary of the method: as §2

[10] = test system: barnyardgrass (Echinochloa crus-galli); assay: Test C postemergence, visual plant response rating
Summary of the method: as §2

[11] = test system: Italian ryegrass (Lolium mutiflorum); assay: Test C postemergence, visual plant response rating
Summary of the method: as §2

[12] = test system: ragweed (common ragweed, Ambrosia artemisiifolia); assay: Test C postemergence, visual plant response rating
Summary of the method: as §2

[13] = test system: foxtail, giant (giant foxtail, Setaria faberi); assay: Test C postemergence, visual plant response rating
Summary of the method: as §2

[14] = test system: kochia (Bassia scoparia); assay: Test C postemergence, visual plant response rating
Summary of the method: as §2

[15] = test system: pigweed (Amaranthus retroflexus); assay: Test C preemergence, visual plant response rating
Summary of the method: as §2

[16] = test system: barnyardgrass (Echinochloa crus-galli); assay: Test C preemergence, visual plant response rating
Summary of the method: as §2

[17] = test system: Italian ryegrass (Lolium mutiflorum); assay: Test C preemergence, visual plant response rating
Summary of the method: as §2

[18] = test system: ragweed (common ragweed, Ambrosia artemisiifolia); assay: Test C preemergence, visual plant response rating
Summary of the method: as §2

[19] = test system: foxtail, giant (giant foxtail, Setaria faberi); assay: Test C preemergence, visual plant response rating
Summary of the method: as §2

[20] = test system: kochia (Bassia scoparia); assay: Test C preemergence, visual plant response rating
Summary of the method: as §2

[21] = Test C, postemergence, 31 g ai/ha
[22] = Test C, postemergence, 125 g ai/ha
[23] = Test C, 31 g ai/ha, 0 is no effect, 100 is complete control
[24] = Test C, 125 g ai/ha, 0 is no effect, 100 is complete control

| Compound | Plant response rating, Ducksalad (Flood) [1] | Plant response rating, Barnyardgrass (Flood) [2] | Plant response rating, Sedge, Umbrella (Flood) [3] | Plant response rating, Rice (Flood) [4] | Galium plant response rating (0 to 100 scale) [5, 22] | Wheat plant response rating (0 to 100 scale) ([6]; Postemergence, 31 g ai/ha) | Wheat plant response rating (0 to 100 scale) [6, 22] | Corn plant response rating (0 to 100 scale) [7, 22] | Blackgrass plant response rating (0 to 100 scale) [8, 22] | Pigweed plant response rating (0 to 100 scale) ([9]; Postemergence, 31 g ai/ha) | Pigweed plant response rating (0 to 100 scale) [9, 22] | Barnyardgrass plant response rating (0 to 100 scale) [10, 22] | Ryegrass, Italian plant response rating (0 to 100 scale) ([11]; Postemergence, 31 g ai/ha) | Ryegrass, Italian plant response rating (0 to 100 scale) [11, 22] | Ragweed plant response rating (0 to 100 scale) ([12]; Postemergence, 31 g ai/ha) | Ragweed plant response rating (0 to 100 scale) [12, 22] | Foxtail, Giant plant response rating (0 to 100 scale) [13, 22] | Kochia plant response rating (0 to 100 scale) [14, 22] | Pigweed plant response rating (0 to 100 scale) [15, 23] | Barnyardgrass plant response rating (0 to 100 scale) [16, 23] | other results |
| --- | --- | --- | --- | --- | --- | --- | --- | --- | --- | --- | --- | --- | --- | --- | --- | --- | --- | --- | --- | --- | --- |
| C#CCO/N=C(/c1cc(C)cc(Cl)c1)c1c(O)c(C)nn(C)c1=O [Compound 154] | 0 | 0 | 0 | 0 | 100 | 30 | 90 | 40 | 90 | 30 | 100 | 90 | 70 | 100 | 70 | 90 | 90 | 70 | 40 | 40 | Galium plant response rating (0 to 100 scale) [5, 21]: 90; Corn plant response rating (0 to 100 scale) [7, 21]: 0; Blackgrass plant response rating (0 to 100 scale) [8, 21]: 50; Barnyardgrass plant response rating (0 to 100 scale) [10, 21]: 50; Foxtail, Giant plant response rating (0 to 100 scale) [13, 21]: 80; Kochia plant response rating (0 to 100 scale) [14, 21]: 60; Pigweed plant response rating (0 to 100 scale) ([15]; 125 g ai/ha): 90; Barnyardgrass plant response rating (0 to 100 scale) ([16]; 125 g ai/ha): 90; Ryegrass, Italian plant response rating (0 to 100 scale) ([17]; 125 g ai/ha): 100; Ryegrass, Italian plant response rating (0 to 100 scale) [17, 23]: 40; Ragweed plant response rating (0 to 100 scale) ([18]; 125 g ai/ha): 80; Ragweed plant response rating (0 to 100 scale) [18, 23]: 40; Foxtail, Giant plant response rating (0 to 100 scale) ([19]; 125 g ai/ha): 100; Foxtail, Giant plant response rating (0 to 100 scale) [19, 23]: 60; Kochia plant response rating (0 to 100 scale) ([20]; 125 g ai/ha): 90; Kochia plant response rating (0 to 100 scale) [20, 23]: 0 |
| C#CCO/N=C(\c1cccc(Br)c1)c1c(O)c(C)nn(C)c1=O [Compound 278] | 0 | 0 | 0 | 0 | 90 | 40 | 80 | 20 | 90 | 30 | 70 | 50 | 70 | 80 | 60 | 80 | 70 | 80 | 0 | 0 | Galium plant response rating (0 to 100 scale) ([5]; Postemergence, 31 g ai/ha): 80; Corn plant response rating (0 to 100 scale) ([7]; Postemergence, 31 g ai/ha): 0; Blackgrass plant response rating (0 to 100 scale) ([8]; Postemergence, 31 g ai/ha): 50; Barnyardgrass plant response rating (0 to 100 scale) ([10]; Postemergence, 31 g ai/ha): 40; Foxtail, Giant plant response rating (0 to 100 scale) ([13]; Postemergence, 31 g ai/ha): 30; Kochia plant response rating (0 to 100 scale) ([14]; Postemergence, 31 g ai/ha): 40; Pigweed plant response rating (0 to 100 scale) [15, 24]: 0; Barnyardgrass plant response rating (0 to 100 scale) [16, 24]: 20; Ryegrass, Italian plant response rating (0 to 100 scale) [17, 23]: 20; Ryegrass, Italian plant response rating (0 to 100 scale) [17, 24]: 100; Ragweed plant response rating (0 to 100 scale) [18, 23]: 10; Ragweed plant response rating (0 to 100 scale) [18, 24]: 40; Foxtail, Giant plant response rating (0 to 100 scale) [19, 23]: 30; Foxtail, Giant plant response rating (0 to 100 scale) [19, 24]: 60; Kochia plant response rating (0 to 100 scale) [20, 23]: 0; Kochia plant response rating (0 to 100 scale) [20, 24]: 70 |
| CON=C(c1cc(F)cc(F)c1F)c1c(O)c(C)nn(C)c1=O [Compound 226] | 0 | 0 | 0 | 0 | 90 | 0 | 0 | 0 | 0 | 30 | 50 | 20 | 20 | 50 | 30 | 70 | 40 | 60 | 30 | 0 | Galium plant response rating (0 to 100 scale) ([5]; Postemergence, 31 g ai/ha): 50; Corn plant response rating (0 to 100 scale) ([7]; Postemergence, 31 g ai/ha): 0; Blackgrass plant response rating (0 to 100 scale) ([8]; Postemergence, 31 g ai/ha): 0; Barnyardgrass plant response rating (0 to 100 scale) ([10]; Postemergence, 31 g ai/ha): 10; Foxtail, Giant plant response rating (0 to 100 scale) ([13]; Postemergence, 31 g ai/ha): 30; Kochia plant response rating (0 to 100 scale) ([14]; Postemergence, 31 g ai/ha): 20; Pigweed plant response rating (0 to 100 scale) [15, 24]: 70; Barnyardgrass plant response rating (0 to 100 scale) [16, 24]: 0; Ryegrass, Italian plant response rating (0 to 100 scale) [17, 23]: 30; Ryegrass, Italian plant response rating (0 to 100 scale) [17, 24]: 70; Ragweed plant response rating (0 to 100 scale) [18, 23]: 30; Ragweed plant response rating (0 to 100 scale) [18, 24]: 70; Foxtail, Giant plant response rating (0 to 100 scale) [19, 23]: 10; Foxtail, Giant plant response rating (0 to 100 scale) [19, 24]: 10; Kochia plant response rating (0 to 100 scale) [20, 23]: 0; Kochia plant response rating (0 to 100 scale) [20, 24]: 40 |
| C#CCO/N=C(/c1cccc(Br)c1)c1c(O)c(C)nn(C)c1=O [Compound 277] | 0 | 0 | 0 | 0 | 80 | 30 | 70 | 30 | 80 | 40 | 60 | 60 | 40 | 70 | 40 | 90 | 60 | 70 | 10 | 0 | Galium plant response rating (0 to 100 scale) ([5]; Postemergence, 31 g ai/ha): 70; Corn plant response rating (0 to 100 scale) ([7]; Postemergence, 31 g ai/ha): 10; Blackgrass plant response rating (0 to 100 scale) ([8]; Postemergence, 31 g ai/ha): 30; Barnyardgrass plant response rating (0 to 100 scale) ([10]; Postemergence, 31 g ai/ha): 20; Foxtail, Giant plant response rating (0 to 100 scale) ([13]; Postemergence, 31 g ai/ha): 10; Kochia plant response rating (0 to 100 scale) ([14]; Postemergence, 31 g ai/ha): 50; Pigweed plant response rating (0 to 100 scale) [15, 24]: 70; Barnyardgrass plant response rating (0 to 100 scale) [16, 24]: 30; Ryegrass, Italian plant response rating (0 to 100 scale) [17, 23]: 10; Ryegrass, Italian plant response rating (0 to 100 scale) [17, 24]: 100; Ragweed plant response rating (0 to 100 scale) [18, 23]: 20; Ragweed plant response rating (0 to 100 scale) [18, 24]: 80; Foxtail, Giant plant response rating (0 to 100 scale) [19, 23]: 10; Foxtail, Giant plant response rating (0 to 100 scale) [19, 24]: 30; Kochia plant response rating (0 to 100 scale) [20, 23]: 0; Kochia plant response rating (0 to 100 scale) [20, 24]: 90 |
